Experimental data taken from patent US20260265694A1, “USE OF A VITISIN COMPOUND FOR THE PRODUCTION OF HEMATOPOIETIC CELLS” (ETABLISSEMENT FRANCAIS DU SANG, priority 2022, published 2026).

Columns and labels:
Format in all cases: cell-based, human
[1] = system: CMP isolated from peripheral blood CD34+ cells; assay: ERYTHRO 1 PROTOCOL on sorted CMP cells; settings: CMPs, 10 μM
Protocol: (§1) b. Isolation of CMP and MEP Progenitors The CD34^+ cells previously isolated via an immunomagnetic technique were marked with anti-CD34-BV421 (1:100 000), anti-CD45RA-BB517 (1:100 000), anti-CD123-Alexa647 (1.5:100 000) antibodies (BD Pharmingen) and a cocktail of anti-LIN-PE antibodies (2:100 000) for 15 minutes. The LIN cocktail antibodies are directed against markers specific to mature cells (CD2, CD3, CD4, CD7, CD8, CD10, CD11b, CD14, CD19, CD20, CD56, CD235a). This LIN cocktail thus allows enrichment in “LIN^neg” immature cells by depletion of mature cells. After incubation with these antibodies, the cells are rinsed with a solution of PBS^+ (PBS+2% Fetal Calf Serum (FCS)) and centrifuged (430×g, 10 min. 4° C.). After resuspension of the cells in PBS^+, CMPs with the phenotype CD34^+LIN^negCD123^+CD45RA^neg and MEPs with the phenotype CD34^+LIN^negCD123^negCD45RA^neg are sorted and harvested using an ARIA cell sorter (Manz et al., 2002). c. Isolation of BFU-E and CFU-E Progenitors Placental blood CD34^+ cells, previously isolated by immunomagnetic sorting, are marked with antibodies specific to surface antigens allowing them to target and discriminate BFU-E primitive erythrocyte progenitors, namely anti-CD34, anti-GPA, anti CD123 and anti-CD36 antibodies. Primitive erythrocyte progenitors (BFU-Es) are defined by the following phenotype: CD34^+CD123^negCD36^negGPA^neg. […]

[2] = system: MEP isolated from peripheral blood CD34+ cells; assay: ERYTHRO 1 PROTOCOL on sorted MEP cells; settings: MEPs, 10 μM
Protocol: as §1

[3] = system: BFU-E and CFU-E erythrocyte progenitors from placental blood CD34+ cells; assay: CFC clonogenic assay of BFU-E and CFU-E during phase 1 of ERYTHRO 2; settings: 10 μM
Protocol: • CTRL condition: cells are cultured for 7 days in the absence of vitisin B. • TEST condition: cells are cultured for 7 days in the presence of vitisin B at 10 μM.
To this end, the CFC (Colony Forming Cells) test is used. Committed progenitors are capable of generating colonies after culture in a semisolid medium composed of methylcellulose and supplemented with cytokines. Thus, committed progenitors (here BFU-Es and CFU-Es) produced during erythrocyte cultures can be counted.
This analysis of BFU-E and CFU-E production was performed only during phase 1 of PROTOCOL 2. Cells grown and harvested on days 4, 8 and 11 of phase 1 were seeded in a ready-to-use cytokine-supplemented methylcellulose H4034 kit (Stem Cell Technology, Meylan, France) at concentrations of 150 cells/[…] H4034 for day 4 and 300 cells/250

**Q.** Which “erythrocyte differentiation (acquisition of the phenotype CD71+GPA+)” value ([1]; FIG. 4A) does the source give for `Oc1ccc(C2Oc3ccc(/C=C/c4cc(O)cc5c4[C@H](c4cc(O)cc(O)c4)[C@@H](c4ccc(O)cc4)O5)cc3C2c2cc(O)cc3c2C(c2cc(O)cc(O)c2)C(c2ccc(O)cc2)O3)cc1` (stereo in doubt) [vitisin B, 5-[(2R,2'S,3R,3'S)-5-[(1E)-2-[(2S,3S)-3-(3,5-Dihydroxyphenyl)-2,3-dihydro-6-hydroxy-2-(4-hydroxyphenyl)-4-benzofuranyl]ethenyl]-2,2′,3,3′-tetrahydro-6′-hydroxy-2,2′-bis(4-hydroxyphenyl)[3,4′-bibenzofuran]-3′-yl]-1,3-benzenediol] here?
**A.** Its value is “acceleration of erythrocyte differentiation”.

**Q.** And the “reduction relative to the control in CD71 membrane expression” value ([1]; as early as D7, FIG. 4B)?
**A.** The value was “up to 40%”.

**Q.** What about the “erythrocyte differentiation (acquisition of the phenotype CD71+GPA+)” value ([2]; FIG. 4A) of the same molecule?
**A.** Its value is “acceleration of erythrocyte differentiation”.

**Q.** What about the “reduction relative to the control in CD71 membrane expression” value ([2]; as early as D7, FIG. 4B) of the same molecule?
**A.** The value was “up to 40%”.

**Q.** And the “appearance of primitive erythrocyte progenitors (BFU-Es)” value ([3]; clonogenic assay at D4, D8, D11, FIG. 7A)?
**A.** Its value is “accelerated the appearance”.

**Q.** And the “appearance of more differentiated progenitors (CFU-Es)” value ([3]; clonogenic assay at D4, D8, D11, FIG. 7B)?
**A.** Its value is “accelerated the appearance”.
